Assay results as given in US9994617B2, “Modulation of structured polypeptide specificity” (BICYCLE THERAPEUTICS LIMITED, priority 2011, dated 2018).
Numbered stars: 1 amine (or outer) side, 2 acyl side, 3 side chain; on linkers, the order of the positions; unused ones are H or OH. Bridge positions count the residues as written; N and C are the ends. Square brackets hold non-standard residues; d marks the D form. Peptide text beside a SMILES is read from it. NMeW = CN[C@@H](Cc1c[nH]c2ccccc12)C(=O)O; TBMB = c1c(C[*:1])cc(C[*:3])cc1C[*:2]; NMeC = CN[C@@H](CS)C(=O)O; NMeS = CN[C@@H](CO)C(=O)O; NMeA = CN[C@@H](C)C(=O)O

The compounds below were run against human plasma kallikrein (hPK) (Homo sapiens, UniProt P03952) (assay: Enzyme inhibition assay, human plasma kallikrein). Conditions: not given.
`CC(=O)N[C@H]1CSCc2cc3cc(c2)CSC[C@@H](NC(=O)[C@H](CCCNC(=N)N)NC(=O)[C@H](C)NC(=O)[C@@H]2CCCN2C(=O)[C@H](Cc2c[nH]c4ccccc24)NC(=O)[C@H](CO)NC1=O)C(=O)N[C@@H](CC(C)C)C(=O)N[C@@H](Cc1c[nH]cn1)C(=O)N[C@@H](CCC(N)=O)C(=O)N[C@@H](CC(=O)O)C(=O)N[C@@H](CC(C)C)C(=O)N[C@H](C(N)=O)CSC3` [Ac-(06-34-18) D-Cys2] showed a Ki of 234 nM. In the case of `CC(=O)N[C@H]1CSCc2cc3cc(c2)CSC[C@H](NC(=O)[C@H](CCCNC(=N)N)NC(=O)[C@H](C)NC(=O)[C@H]2CCCN2C(=O)[C@H](Cc2c[nH]c4ccccc24)NC(=O)[C@H](CO)NC1=O)C(=O)N[C@@H](CC(C)C)C(=O)N[C@@H](Cc1c[nH]cn1)C(=O)N[C@@H](CCC(N)=O)C(=O)N[C@@H](CC(=O)O)C(=O)N[C@@H](CC(C)C)C(=O)N[C@H](C(N)=O)CSC3` [Ac-(06-34-18) D-Pro3], the Ki is reported as 680 nM. `CC(=O)N[C@H]1CSCc2cc3cc(c2)CSC[C@H](NC(=O)[C@H](CCCNC(=N)N)NC(=O)[C@H](C)NC(=O)[C@@H]2CCCN2C(=O)[C@@H](Cc2c[nH]c4ccccc24)NC(=O)[C@H](CO)NC1=O)C(=O)N[C@@H](CC(C)C)C(=O)N[C@@H](Cc1c[nH]cn1)C(=O)N[C@@H](CCC(N)=O)C(=O)N[C@@H](CC(=O)O)C(=O)N[C@@H](CC(C)C)C(=O)N[C@H](C(N)=O)CSC3` [Ac-(06-34-18) D-Trp2] showed a Ki of 7560 nM. `CC(=O)N[C@H]1CSCc2cc3cc(c2)CSC[C@H](NC(=O)[C@H](CCCNC(=N)N)NC(=O)[C@H](C)N(C)C(=O)[C@@H]2CCCN2C(=O)[C@H](Cc2c[nH]c4ccccc24)NC(=O)[C@H](CO)NC1=O)C(=O)N[C@@H](CC(C)C)C(=O)N[C@@H](Cc1c[nH]cn1)C(=O)N[C@@H](CCC(N)=O)C(=O)N[C@@H](CC(=O)O)C(=O)N[C@@H](CC(C)C)C(=O)N[C@H](C(N)=O)CSC3` [Ac-(06-34-18) NMeAla4] (Ac-CSWP[NMeA]RCLHQDLC-NH2; linker 1-7-13 via TBMB) was tested, and the Ki was 343 nM. `CC(=O)N[C@H]1CSCc2cc3cc(c2)CSC[C@@H](C(=O)N[C@@H](CC(C)C)C(=O)N[C@@H](Cc2c[nH]cn2)C(=O)N[C@@H](CCC(N)=O)C(=O)N[C@@H](CC(=O)O)C(=O)N[C@@H](CC(C)C)C(=O)N[C@H](C(N)=O)CSC3)N(C)C(=O)[C@H](CCCNC(=N)N)NC(=O)[C@H](C)NC(=O)[C@@H]2CCCN2C(=O)[C@H](Cc2c[nH]c3ccccc23)NC(=O)[C@H](CO)NC1=O` [Ac-(06-34-18) NMeCys2] (Ac-CSWPAR[NMeC]LHQDLC-NH2; linker 1-7-13 via TBMB) gave a Ki of 418 nM. `CC(=O)N[C@H]1CSCc2cc3cc(c2)CSC[C@H](NC(=O)[C@H](CCCNC(=N)N)NC(=O)[C@H](C)N(C)C(=O)[C@@H]2CCCN2C(=O)[C@H](Cc2c[nH]c4ccccc24)NC(=O)[C@H](CO)N(C)C1=O)C(=O)N[C@@H](CC(C)C)C(=O)N[C@@H](Cc1c[nH]cn1)C(=O)N[C@@H](CCC(N)=O)C(=O)N[C@@H](CC(=O)O)C(=O)N[C@@H](CC(C)C)C(=O)N[C@H](C(N)=O)CSC3` [Ac-(06-34-18) NMeSer1, NMeAla4] (Ac-C[NMeS]WP[NMeA]RCLHQDLC-NH2; linker 1-7-13 via TBMB) showed a Ki of 444 nM. `CC(=O)N[C@H]1CSCc2cc3cc(c2)CSC[C@H](NC(=O)[C@H](CCCNC(=N)N)NC(=O)[C@H](C)NC(=O)[C@@H]2CCCN2C(=O)[C@H](Cc2c[nH]c4ccccc24)NC(=O)[C@H](CO)N(C)C1=O)C(=O)N[C@@H](CC(C)C)C(=O)N[C@@H](Cc1c[nH]cn1)C(=O)N[C@@H](CCC(N)=O)C(=O)N[C@@H](CC(=O)O)C(=O)N[C@@H](CC(C)C)C(=O)N[C@H](C(N)=O)CSC3` [Ac-(06-34-18) NMeSer1] (Ac-C[NMeS]WPARCLHQDLC-NH2; linker 1-7-13 via TBMB) gave a Ki of 0.5 nM. `CC(=O)N[C@H]1CSCc2cc3cc(c2)CSC[C@H](NC(=O)[C@H](CCCNC(=N)N)NC(=O)[C@H](C)NC(=O)[C@@H]2CCCN2C(=O)[C@H](Cc2c[nH]c4ccccc24)N(C)C(=O)[C@H](CO)NC1=O)C(=O)N[C@@H](CC(C)C)C(=O)N[C@@H](Cc1c[nH]cn1)C(=O)N[C@@H](CCC(N)=O)C(=O)N[C@@H](CC(=O)O)C(=O)N[C@@H](CC(C)C)C(=O)N[C@H](C(N)=O)CSC3` [Ac-(06-34-18) NMeTrp2] (Ac-CS[NMeW]PARCLHQDLC-NH2; linker 1-7-13 via TBMB) gave a Ki of 228 nM. `CC(=O)N[C@H]1CSCc2cc3cc(c2)CSC[C@H](NC(=O)[C@H](CCCNC(=N)N)NC(=O)[C@H](Cc2c[nH]c4ccccc24)NC(=O)[C@H](C)NC(=O)[C@H](CO)NC(=O)[C@@H]2CCCN2C1=O)C(=O)N[C@@H](CC(C)C)C(=O)N[C@@H](Cc1c[nH]cn1)C(=O)N[C@@H](CCC(N)=O)C(=O)N[C@@H](CC(=O)O)C(=O)N[C@@H](CC(C)C)C(=O)N[C@H](C(N)=O)CSC3` [Ac-(06-34-18) Scram1] (Ac-CPSAWRCLHQDLC-NH2; linker 1-7-13 via TBMB) was tested, and the Ki was 1090 nM. In the case of `CC(=O)N[C@H]1CSCc2cc3cc(c2)CSC[C@H](NC(=O)[C@H](CCCNC(=N)N)NC(=O)[C@@H]2CCCN2C(=O)[C@H](CO)NC(=O)[C@H](C)NC(=O)[C@H](Cc2c[nH]c4ccccc24)NC1=O)C(=O)N[C@@H](CC(C)C)C(=O)N[C@@H](Cc1c[nH]cn1)C(=O)N[C@@H](CCC(N)=O)C(=O)N[C@@H](CC(=O)O)C(=O)N[C@@H](CC(C)C)C(=O)N[C@H](C(N)=O)CSC3` [Ac-(06-34-18) Scram2] (Ac-CWASPRCLHQDLC-NH2; linker 1-7-13 via TBMB), the Ki is reported as 11400 nM. `CC(=O)N[C@H]1CSCc2cc3cc(c2)CSC[C@H](NC(=O)[C@H](CCCNC(=N)N)NC(=O)[C@H](CO)NC(=O)[C@H](Cc2c[nH]c4ccccc24)NC(=O)[C@@H]2CCCN2C(=O)[C@H](C)NC1=O)C(=O)N[C@@H](CC(C)C)C(=O)N[C@@H](Cc1c[nH]cn1)C(=O)N[C@@H](CCC(N)=O)C(=O)N[C@@H](CC(=O)O)C(=O)N[C@@H](CC(C)C)C(=O)N[C@H](C(N)=O)CSC3` [Ac-(06-34-18) Scram3] (Ac-CAPWSRCLHQDLC-NH2; linker 1-7-13 via TBMB) showed a Ki of 1890 nM. `CC(=O)N[C@H]1CSCc2cc3cc(c2)CSC[C@H](NC(=O)[C@@H]2CCCN2C(=O)[C@H](CO)NC(=O)[C@H](CCCNC(=N)N)NC(=O)[C@H](C)NC(=O)[C@H](Cc2c[nH]c4ccccc24)NC1=O)C(=O)N[C@@H](CC(C)C)C(=O)N[C@@H](Cc1c[nH]cn1)C(=O)N[C@@H](CCC(N)=O)C(=O)N[C@@H](CC(=O)O)C(=O)N[C@@H](CC(C)C)C(=O)N[C@H](C(N)=O)CSC3` [Ac-(06-34-18) Scram4] (Ac-CWARSPCLHQDLC-NH2; linker 1-7-13 via TBMB) showed a Ki of 67500 nM. For `CC(=O)N[C@H]1CSCc2cc3cc(c2)CSC[C@H](NC(=O)[C@H](C)NC(=O)[C@@H]2CCCN2C(=O)[C@H](Cc2c[nH]c4ccccc24)NC(=O)[C@H](CO)NC1=O)C(=O)N[C@@H](CC(C)C)C(=O)N[C@@H](Cc1c[nH]cn1)C(=O)N[C@@H](CCC(N)=O)C(=O)N[C@@H](CC(=O)O)C(=O)N[C@@H](CC(C)C)C(=O)N[C@H](C(N)=O)CSC3` [Ac-(06-34-18) Δ Arg5] (Ac-CSWPACLHQDLC-NH2; linker 1-6-12 via TBMB), the Ki was > 100000 nM. `CC(=O)N[C@H]1CSCc2cc3cc(c2)CSC[C@H](NC(=O)C[C@H](CCCNC(=N)N)NC(=O)[C@H](C)NC(=O)[C@@H]2CCCN2C(=O)[C@H](Cc2c[nH]c4ccccc24)NC(=O)[C@H](CO)NC1=O)C(=O)N[C@@H](CC(C)C)C(=O)N[C@@H](Cc1c[nH]cn1)C(=O)N[C@@H](CCC(N)=O)C(=O)N[C@@H](CC(=O)O)C(=O)N[C@@H](CC(C)C)C(=O)N[C@H](C(N)=O)CSC3` [Ac-(06-34-18) βhomoArg5] was tested, and the Ki was 8.2 nM. `CC(C)C[C@@H]1NC(=O)[C@H](CCC(=O)O)NC(=O)[C@H](CCCNC(=N)N)NC(=O)[C@H]([C@@H](C)O)NC(=O)[C@H](CC(C)C)NC(=O)[C@@H]2CSCc3cc(cc(c3)CSC[C@@H](C(=O)N[C@@H](C)C(N)=O)NC1=O)CSC[C@H](NC(=O)[C@H](C)N)C(=O)N[C@@H](C)C(=O)N[C@@H](Cc1c[nH]c3ccccc13)C(=O)N1CCC[C@H]1C(=O)N[C@@H](C)C(=O)N[C@@H](CCCCN)C(=O)N2` [Peptide 1B1] (H-ACAWPAKCLTRELCA-NH2; linker 2-8-14 via TBMB) gave a Ki of 8.1 nM. `C[C@H](N)C(=O)N[C@H]1CSCc2cc3cc(c2)CSC[C@H](NC(=O)[C@H](CC(N)=O)NC(=O)[C@H](CC(N)=O)NC(=O)[C@H](Cc2ccc(O)cc2)NC(=O)CNC(=O)CNC1=O)C(=O)N[C@@H](CCCNC(=N)N)C(=O)N[C@@H](C)C(=O)N[C@@H](Cc1ccccc1)C(=O)N[C@@H](CO)C(=O)N[C@@H](Cc1ccc(O)cc1)C(=O)N[C@H](C(=O)N[C@@H](C)C(N)=O)CSC3` [Peptide 1F7] (H-ACGGYNNCRAFSYCA-NH2; linker 2-8-14 via TBMB) gave a Ki of 2.2 nM. With `CC(C)[C@@H]1NC(=O)[C@H](CCCNC(=N)N)NC(=O)[C@@H]2CSCc3cc(cc(c3)CSC[C@@H](C(=O)N[C@@H](C)C(N)=O)NC(=O)[C@H](C)NC1=O)CSC[C@H](NC(=O)[C@H](C)N)C(=O)N[C@@H](Cc1ccccc1)C(=O)N1CCC[C@H]1C(=O)N[C@@H](CCCCN)C(=O)N2` [Peptide 3A3] (H-ACFPKCRVACA-NH2; linker 2-6-10 via TBMB) the Ki was 43.1 nM. For `CC(C)[C@@H]1NC(=O)[C@H](CCCNC(=N)N)NC(=O)[C@@H]2CSCc3cc(cc(c3)CSC[C@@H](C(=O)N[C@@H](C)C(N)=O)NC(=O)[C@H](CC(N)=O)NC1=O)CSC[C@H](NC(=O)[C@H](C)N)C(=O)N[C@@H](Cc1ccccc1)C(=O)N[C@@H](CCCCN)C(=O)N[C@@H](CC(N)=O)C(=O)N2` [Peptide 3B2] (H-ACFKNCRVNCA-NH2; linker 2-6-10 via TBMB), the Ki was 9 nM. In the case of `CC[C@H](C)[C@@H]1NC(=O)[C@H](C(C)C)NC(=O)[C@H](CCCNC(=N)N)NC(=O)[C@@H]2CSCc3cc(cc(c3)CSC[C@@H](C(=O)N[C@@H](C)C(N)=O)NC1=O)CSC[C@H](NC(=O)[C@H](C)N)C(=O)N[C@@H](Cc1ccccc1)C(=O)N[C@@H](CC(=O)O)C(=O)N1CCC[C@H]1C(=O)N2` [Peptide 3B9] (H-ACFDPCRVICA-NH2; linker 2-6-10 via TBMB), the Ki is reported as 90.8 nM. In the case of `CC(C)[C@@H]1NC(=O)[C@H](CCCNC(=N)N)NC(=O)[C@@H]2CSCc3cc(cc(c3)CSC[C@@H](C(=O)N[C@@H](C)C(N)=O)NC(=O)[C@H](CC(N)=O)NC1=O)CSC[C@H](NC(=O)[C@H](C)N)C(=O)N[C@@H](Cc1ccccc1)C(=O)N[C@@H](CC(N)=O)C(=O)N[C@@H](CCCCN)C(=O)N2` [Peptide 06-64] (H-ACFNKCRVNCA-NH2; linker 2-6-10 via TBMB), the Ki is reported as 4.8 nM.

Same assay, conditions: versus Ac-06-34-18(TMB)-NH2
In the case of `CC(=O)N[C@H]1CSCc2cc3cc(c2)CSC[C@H](NC(=O)[C@H](CCCNC(=N)N)NC(=O)[C@H](C)NC(=O)[C@@H]2CCCN2C(=O)[C@@H](Cc2c[nH]c4ccccc24)NC(=O)[C@H](CO)NC1=O)C(=O)N[C@@H](CC(C)C)C(=O)N[C@@H](Cc1c[nH]cn1)C(=O)N[C@@H](CCC(N)=O)C(=O)N[C@@H](CC(=O)O)C(=O)N[C@@H](CC(C)C)C(=O)N[C@H](C(N)=O)CSC3` [Ac-(06-34-18) D-Trp2], the “fold reduction in affinity to kallikrein compared to wildtype peptide” value is reported as 45000 fold.
